Here are results for 6 compounds from ChEMBL document CHEMBL1142639, “New triterpenoid saponins from the sponge Melophlus isis” (2000).

Converted amounts (≈) assume the structure as drawn. The source made the active and inactive calls. No cut-off for these calls is given here.

One assay relates to K562. In words: Cytotoxicity against human K562 cells. The format is functional. Particulars: read-out: LC50 (the source's name).
Assay [1] has as its system Photobacterium leiognathi. Nature of the assay: Antibacterial activity against Photobacterium leiognathi at 100 ug/mL by paper disk method. In kind it is functional, organism-based.
Another assay relates to Vibrio harveyi. Nature of the assay: Antibacterial activity against Vibrio harveyi at 100 ug/mL by paper disk method. In kind it is functional, organism-based.
Assay [2] relates to Photobacterium phosphoreum. Nature of the assay: Antibacterial activity against Photobacterium phosphoreum at 100 ug/mL by paper disk method. The format is functional, organism-based.

On to `CC(=O)N[C@H]1[C@H](O[C@@H]2CO[C@@H](O[C@H]3CC[C@]4(C)C5=C(CC[C@H]4C3(C)C)[C@@H]3CC[C@H]([C@H](C)CC(=O)C=C(C)C)[C@@]3(C)CC5)[C@H](O[C@@H]3O[C@H](CO[C@@H]4O[C@H](CO)[C@@H](O)[C@H](O)[C@H]4O[C@@H]4O[C@H](CO)[C@@H](O)[C@H](O)[C@H]4O)[C@@H](O)[C@H](O)[C@H]3NC(C)=O)[C@H]2O)O[C@H](CO)[C@H](O)[C@@H]1O` [SARASINOSIDE A1], for which the CC50 with K562 was 6.5 µg/mL (≈ 5.04 µM).

In the case of `CC(=O)N[C@H]1[C@H](O[C@@H]2CO[C@@H](O[C@H]3CC[C@]4(C)C5=C(CC[C@H]4C3(C)C)C3=CC[C@H]([C@H](C)CC(=O)C=C(C)C)[C@@]3(C)CC5)[C@H](O[C@@H]3O[C@H](CO[C@@H]4O[C@H](CO)[C@@H](O)[C@H](O)[C@H]4O[C@@H]4O[C@H](CO)[C@@H](O)[C@H](O)[C@H]4O)[C@@H](O)[C@H](O)[C@H]3NC(C)=O)[C@H]2O)O[C@H](CO)[C@H](O)[C@@H]1O` [SARASINOSIDE A3], the CC50 in the assay on K562 stood at 17.1 µg/mL (≈ 13.3 µM).

With `CC(=O)N[C@H]1[C@H](O[C@@H]2CO[C@@H](O[C@H]3CC[C@@]4(C)[C@@H](CCC5=C6[C@H](O)C[C@H]([C@H](C)CC(=O)C=C(C)C)[C@@]6(C)CC[C@@]54O)C3(C)C)[C@H](O[C@@H]3O[C@H](CO[C@@H]4O[C@H](CO)[C@@H](O)[C@H](O)[C@H]4O[C@@H]4O[C@H](CO)[C@@H](O)[C@H](O)[C@H]4O)[C@@H](O)[C@H](O)[C@H]3NC(C)=O)[C@H]2O)O[C@H](CO)[C@H](O)[C@@H]1O` [SARASINOSIDE H1], the result (in assay [1]; in the assay on Vibrio harveyi; in assay [2]) was inactive. Moreover, the CC50 with K562 is over 100 µg/mL.

Turning to `CO[C@@H]1C[C@H]([C@H](C)CC(=O)C=C(C)C)[C@@]2(C)CC[C@@]3(O)C(=C12)CC[C@H]1C(C)(C)[C@@H](O[C@@H]2OC[C@@H](O[C@@H]4O[C@H](CO)[C@H](O)[C@H](O)[C@H]4NC(C)=O)[C@H](O)[C@H]2O[C@@H]2O[C@H](CO[C@@H]4O[C@H](CO)[C@@H](O)[C@H](O)[C@H]4O[C@@H]4O[C@H](CO)[C@@H](O)[C@H](O)[C@H]4O)[C@@H](O)[C@H](O)[C@H]2NC(C)=O)CC[C@@]13C` [SARASINOSIDE H2], the result (in assay [1]; in the assay on Vibrio harveyi; in assay [2]) was inactive. Further, in the assay on K562, the CC50 is over 100 µg/mL.

Turning to `CC(=O)N[C@H]1[C@H](O[C@@H]2CO[C@@H](O[C@H]3CC[C@@]4(C)[C@@H](CCC5=C6[C@@H](O)C[C@H]([C@H](C)CC(=O)C=C(C)C)[C@@]6(C)CC[C@@]54O)C3(C)C)[C@H](O[C@@H]3O[C@H](CO[C@@H]4O[C@H](CO)[C@@H](O)[C@H](O)[C@H]4O[C@@H]4O[C@H](CO)[C@@H](O)[C@H](O)[C@H]4O)[C@@H](O)[C@H](O)[C@H]3NC(C)=O)[C@H]2O)O[C@H](CO)[C@H](O)[C@@H]1O` [SARASINOSIDE I1], in assay [1], the A ctivity result is “inactive”. The result (with Vibrio harveyi; in assay [2]) was inactive. In the assay on K562, the CC50 is over 100 µg/mL.

Take `CO[C@H]1C[C@H]([C@H](C)CC(=O)C=C(C)C)[C@@]2(C)CC[C@@]3(O)C(=C12)CC[C@H]1C(C)(C)[C@@H](O[C@@H]2OC[C@@H](O[C@@H]4O[C@H](CO)[C@H](O)[C@H](O)[C@H]4NC(C)=O)[C@H](O)[C@H]2O[C@@H]2O[C@H](CO[C@@H]4O[C@H](CO)[C@@H](O)[C@H](O)[C@H]4O[C@@H]4O[C@H](CO)[C@@H](O)[C@H](O)[C@H]4O)[C@@H](O)[C@H](O)[C@H]2NC(C)=O)CC[C@@]13C` [SARASINOSIDE I2]: the result (in assay [1]; with Vibrio harveyi; in assay [2]) was inactive. Besides, the CC50 in the assay with K562 is over 100 µg/mL.
